Data as given in patent US12441706B2, “Protein degradation agent compound preparation method and application” (SHANGHAI JEMINCARE PHARMACEUTICALS CO., LTD., priority 2019, dated 2025).

Target: T1, androgen receptor (Homo sapiens, UniProt P10275, T878A)
T1 construct: endogenous in cells; host or cells: LNCaP cells
T1 sequence (P10275 1-920 T878A): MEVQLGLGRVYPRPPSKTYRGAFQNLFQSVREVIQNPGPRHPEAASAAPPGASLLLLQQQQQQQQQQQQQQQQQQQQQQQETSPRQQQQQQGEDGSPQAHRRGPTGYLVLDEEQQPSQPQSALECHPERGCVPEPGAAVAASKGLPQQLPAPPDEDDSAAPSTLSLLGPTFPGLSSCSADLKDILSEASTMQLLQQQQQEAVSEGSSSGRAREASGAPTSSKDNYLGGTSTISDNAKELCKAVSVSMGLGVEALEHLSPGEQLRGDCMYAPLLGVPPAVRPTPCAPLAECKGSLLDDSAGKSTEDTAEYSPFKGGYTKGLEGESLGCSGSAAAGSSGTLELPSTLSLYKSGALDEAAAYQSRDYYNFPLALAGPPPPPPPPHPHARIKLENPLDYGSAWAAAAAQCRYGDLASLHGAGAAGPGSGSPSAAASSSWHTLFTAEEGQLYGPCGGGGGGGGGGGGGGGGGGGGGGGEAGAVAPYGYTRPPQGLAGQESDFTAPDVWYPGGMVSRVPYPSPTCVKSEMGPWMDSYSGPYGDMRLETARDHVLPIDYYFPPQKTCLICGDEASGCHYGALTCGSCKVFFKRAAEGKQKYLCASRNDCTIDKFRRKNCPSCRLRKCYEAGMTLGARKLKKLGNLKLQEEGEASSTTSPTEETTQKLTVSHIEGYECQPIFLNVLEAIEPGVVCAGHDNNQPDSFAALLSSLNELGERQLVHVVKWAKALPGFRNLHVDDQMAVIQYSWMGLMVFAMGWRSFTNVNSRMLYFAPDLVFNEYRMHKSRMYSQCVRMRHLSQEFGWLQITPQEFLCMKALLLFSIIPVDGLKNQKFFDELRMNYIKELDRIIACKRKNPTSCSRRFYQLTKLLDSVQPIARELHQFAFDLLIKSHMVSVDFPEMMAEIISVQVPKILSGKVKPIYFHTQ
Assay: In-Cell-Western determination of androgen receptor degradation in LnCaP cells
Assay type: cell-based
Conditions: for Dmax: LNCaP; for DC50: concentration for half of the maximal degradation of AR in LnCaP cells, 24 hours treatment
Procedure: The determination evaluated the properties of the compounds in Lncap cells. Intracellular androgen receptor was determined by In-Cell-Western according to the determination steps described below.
In poly-D-Lysin pretreated 96-well cell culture plate (Corning 3599), LNcap cells were divided into 100 μL/well volume, and inoculated with 30,000 cells/well in LNcap cell assay medium [DMEM containing phenol red (Gibco catalog number: 11995065); fetal bovine serum FBS (Gibco catalog number: 10099141C)]. Cells were cultured for at least two days.
1. First treated cells with compound. Compounds were gradient diluted with DMSO and cell culture medium, so that DMSO contained in cell culture plates was diluted to 0.5% —polypropylene plates were used according to the following protocol: (1)(i) 200× stock plate in DMSO was prepared; (ii) 10 mM stock solution was diluted 1:4 with DMSO (10 μL stock solution+40 μL DMSO)=2000 μM, then entered into row 2; (iii) 1:4 (10 μL protac+40 μL DMSO) gradient dilution was performed from row 2 to row 9, and row 1 was reserved for […] reference compound and row 10 for DMSO. (iv) A total of 8 concentrations (final concentrations on the 200× plate were 2000 μM, 400 μM and 80 μM, etc.). (2) (i) 3× stock solution was prepared in the medium. (ii) 3 μL of 200× stock solution was transferred to 197 µL of culture medium (using 12-channel pipette, from line 1 to line 10), i.e. 3× stock solution plate. (iii) The stock solution plate was mixed evenly. (3) (i) The culture medium of […] cells was replaced with fresh culture medium, 100 μL volume culture medium. (ii) The well-mixed 3× stock solution was transferred to the cell culture plate (using a 12-channel pipette, and 50 μL of stock solution was transferred from line 1 to line 10). (iii) Cells were cultured for 24 hours.
2. The expression level of intracellular androgen receptor after compound treatment was […] and determined according to the following method.
(1)(i) Equal volume of 8% paraformaldehyde was added to the cell culture plate for cell fixation. The fixing solution in the cell plate was discarded and washed three times with PBS. (ii) Triton solution (1:1000 dilution of the stock solution) was prepared. The solution in the cell plate was discarded, and 200 μL of Triton diluent was added into each well. (iii) 2×blocking solution (1:4 dilution of 10×blocking stock solution) was prepared. The solution in the cell plate was discarded, and 100 μL of 2×blocking solution was added into each well. (iv) Primary antibody solution (Androgen receptor Rabbbit mAb, Cell Signaling Technology catalog number: 5153; 1:1000 dilution) was prepared. The solution in the cell plate was discarded, 100 μL volume of primary antibody diluent was added to each well, and incubated at 4° C. overnight. (v) The primary antibody solution was discarded and the cell plate was washed with 1×Wash buffer. (vi) Secondary antibody solution (GOAT Antirabbit IgG (H+L), HRP, Thermo catalog number: 31460; 1:5000 dilution) was prepared, and 100 μL volume of secondary antibody dilution was added to each well for incubation. (vii) The secondary antibody solution in the cell plate was discarded and the cell plate was washed with 1×Wash buffer. (viii) TMB chromogenic solution (BD catalog number: 550534) was prepared, and 100 μL chromogenic solution was added into each well. (ix) 50 μL volume of stop solution (BD catalog number: 550534) was added to each well. (x) The absorption values at OD 450 nm and 570 nm were read though EnVision. (2) (i) Normalized analysis was performed on the number of cells in each well. The solution in the cell plate was discarded, and washed with wash buffer for three times. (ii) Janus dilution (1:3 dilution) was prepared. (iii) 50 μL volume diluent was added to each well for incubation. (iv) The solution in the plate was discarded and washed with deionized water. […]

Row | SMILES | Dmax | DC50
1 | CC1(C)C(=O)N(c2ccc(C#N)c(Cl)c2)c2ccc(-c3ccc(N4CC(CN5CCN(c6ccc7c(c6)C(=O)N(C6CCC(=O)NC6=O)C7=O)CC5)C4)cc3)cc21 (stereo not drawn) [Compound 1] | 82% | 90.3 nM
2 | CC1(C)C(=O)N(c2ccc(C#N)c(C(F)(F)F)c2)c2ccc(-c3ccc(N4CC(CN5CCN(c6ccc7c(c6)C(=O)N(C6CCC(=O)NC6=O)C7=O)CC5)C4)cc3)cc21 (stereo not drawn) [Compound 3] | 89% | 87.1 nM
3 | CC1(C)C(=O)N(c2ccc(C#N)c(Cl)c2)c2ccc(-c3ccc(N4CC(CN5CCN(c6ccc7c(c6)C(=O)N(C6CCC(=O)NC6=O)C7=O)CC5)C4)nc3F)cc21 (stereo not drawn) [Compound 14] | 93% | 66.3 nM
